Experimental data taken from patent US12162867B2, “Inhibitors of RNA helicase DHX9 and uses thereof” (ACCENT THERAPEUTICS, INC., priority 2022, dated 2024).
Like-named read-outs stand apart in the source and are kept apart here.

Assays:
Format in all cases: cell-based
NCI-H747 cells = assay: DHX9 cellular proliferation assay (CellTiter-Glo), NCI-H747 (CRC-MSS); details: Homo sapiens
LS411N cells = assay: DHX9 cellular proliferation assay (CellTiter-Glo), LS411N (CRC-MSI); details: Homo sapiens, LS-411N, read-out: LS411N (CRC-MSI-H) Antiproliferative IC50
[1] = system: circBRIP1 in HCT116 cells; assay: DHX9 circBRIP1 cellular target engagement SYBR Green assay (qPCR); details: Homo sapiens, HCT-116, circBRIP1, HCT116 cells, read-out: DHX9 Cellular Target Engagement EC50
[2] = NCI-H747, NCI-H747, performed at Pharmaron, read-out: H747 (CRC-MSS) Antiproliferative IC50
[3] = NCI-H747, NCI-H747, CRC-MSS, performed at Pharmaron, read-out: H747 (CRC-MSS) Antiproliferative IC50
[4] = LS411N, CRC-MSI-H, performed at Pharmaron
[5] = NCI-H747, read-out: H747 (CRC-MSS) Antiproliferative IC50

Compound	IC50 (NCI-H747 cells; [2]) [nM]	EC50 ([1]; ^+ SyBr assay was used) [nM]	IC50 (NCI-H747 cells; [3]) [nM]	EC50 ([1]; SyBr assay (marked ^+)) [nM]	IC50 (LS411N cells; LS411N, performed at Pharmaron) [nM]	IC50 (LS411N cells; [4]) [nM]	IC50 (NCI-H747 cells; [5]) [nM]	IC50 (LS411N cells) [nM]
CS(=O)(=O)Nc1cc(Cl)cc(NC(=O)c2cnn(-c3c(F)cccc3OCc3cncc(F)c3)c2)c1 [Example 718]	> 10000	137	–	–	114	–	–	–
Cc1ccc(-n2cc(C(=O)Nc3cc(Br)cc(NS(C)(=O)=O)c3)cn2)nc1 [Example 42]	–	–	> 10000	308	–	917	–	–
Cc1cc(C(=O)Nc2cc(Cl)cc(NS(C)(=O)=O)c2)cn1-c1ccccc1 [Example 129, N-(3-chloro-5-(methylsulfonamido)phenyl)-5-methyl-1-phenyl-1H-pyrrole-3-carboxamide]	–	–	> 10000	333	–	1090	–	–
CS(=O)(=O)Nc1cc(Cl)cc(NC(=O)c2cc(-c3ccc(F)cn3)n(CC(F)F)c2)c1 [Example 286]	–	–	> 10000	2630	–	131	–	–
CS(=O)(=O)Nc1cc(Br)cc(NC(=O)c2cc(-c3ccccn3)n(CC#N)c2)c1 [Example 95, N-(3-bromo-5-methanesulfonamidophenyl)-1-(cyanomethyl)-5-(pyridin-2-yl)-1H-pyrrole-3-carboxamide]	–	–	–	179	–	–	7990	1020
CS(=O)(=O)Nc1cc(Br)cc(NC(=O)c2cc(-c3cnccn3)cs2)c1 [Example 18]	–	–	> 10000	98.4	–	546	–	–
Cc1cc(C(=O)Nc2cc(Cl)cc(NS(C)(=O)=O)c2)cn1-c1ccc(N2CCC(F)(F)C2)cn1 [Example 396]	> 10000	33	–	–	122	–	–	–
Cn1cc(C(=O)Nc2cc(Cl)cc(NS(C)(=O)=O)c2)cc1-c1ccc(N2CC(F)(F)C2)cn1 [Example 595, N-(3-chloro-5-methanesulfonamidophenyl)-5-[5-(3,3-difluoroazetidin-1-yl)pyridin-2-yl]-1-methyl-1H-pyrrole-3-carboxamide]	7400	35.2	–	–	167	–	–	–
Cc1cc(C(=O)Nc2cc(Cl)cc(NS(C)(=O)=O)c2)cn1-c1ccc(N2CC(F)C2)cn1 [Example 395]	9220	23.8	–	–	117	–	–	–
CS(=O)(=O)Nc1cc(Br)cc(NC(=O)c2cnn(-c3ccccn3)c2)c1 [Example 36, N-(3-bromo-5-(methylsulfonamido)phenyl)-1-(pyridin-2-yl)-1H-pyrazole-4-carboxamide]	–	–	–	313	–	–	> 10000	1080
Cc1cccc(OCc2cccc(F)c2)c1-n1cc(C(=O)Nc2cc(Cl)cc(NS(C)(=O)=O)c2)cn1 [Example 255]	–	–	> 10000	378	–	74.3	–	–
Cc1cccnc1-c1nc(C(=O)Nc2cc(Br)cc(NS(C)(=O)=O)c2)cn1C [Example 96, N-(3-bromo-5-(methylsulfonamido)phenyl)-1-methyl-2-(3-methylpyridin-2-yl)-1H-imidazole-4-carboxamide]	–	–	> 10000	9630	–	> 10000	–	–
CS(=O)(=O)Nc1cc(Cl)cc(NC(=O)c2cnn(-c3ccc(N4CC5CCC(C4)O5)cn3)c2)c1 [Example 191]	–	–	> 10000	432	–	> 10000	–	–
CS(=O)(=O)Nc1cc(Br)cc(NC(=O)c2cnn(-c3ccccc3OCc3ccccc3)c2)c1 [Example 51]	–	–	6470	188	–	259	–	–
Cn1cc(C(=O)Nc2cc(Cl)cc(NS(C)(=O)=O)c2)cc1-c1ccc(N2CC3(COC3)C2)cn1 [Example 277]	–	–	4700	47.6	–	66.7	–	–
CS(=O)(=O)Nc1cc(Br)cc(NC(=O)c2cc(-c3ncccc3OCc3ccccc3)cs2)c1 [Example 32]	–	–	> 10000	48.2	–	101	–	–

Second part, led by results:

IC50 (NCI-H747 cells; [2]) [nM]	EC50 ([1]; ^+ SyBr assay was used) [nM]	IC50 (NCI-H747 cells; [3]) [nM]	EC50 ([1]; SyBr assay (marked ^+)) [nM]	Compound	IC50 (LS411N cells; LS411N, performed at Pharmaron) [nM]	IC50 (LS411N cells; [4]) [nM]	IC50 (NCI-H747 cells; [5]) [nM]	IC50 (LS411N cells) [nM]
> 10000	39.5	–	–	COCc1ccc(-c2cc(C(=O)Nc3cc(Cl)cc(NS(C)(=O)=O)c3)cn2C)nc1 [Example 574]	92.2	–	–	–
> 10000	40.2	–	–	Cn1cc(C(=O)Nc2cc(Cl)cc(NS(C)(=O)=O)c2)cc1-c1ncc(N2CCCC2)cn1 [Example 520]	118	–	–	–
–	–	> 10000	460	CC(C)c1sc(C(=O)Nc2cc(Cl)cc(NS(C)(=O)=O)c2)cc1-c1ccccn1 [Example 233]	–	356	–	–
–	–	> 10000	25.8	CCS(=O)(=O)Nc1cc(Cl)cc(NC(=O)c2cc(-c3ccccn3)c(C)s2)c1 [Example 28]	–	78.8	–	–
–	–	> 10000	101	CS(=O)(=O)Nc1cc(Cl)cc(NC(=O)c2cc(-c3ncccc3Oc3ncccn3)cs2)c1 [Example 178, N-(3-chloro-5-(methylsulfonamido)phenyl)-4-(3-(pyrimidin-2-yloxy)pyridin-2-yl)thiophene-2-carboxamide]	–	81.1	–	–
–	–	> 10000	63	COc1ccc(-n2cc(C(=O)Nc3cc(Cl)cc(NS(C)(=O)=O)c3)cc2C)nc1 [Example 391]	–	171	–	–
> 10000	57.5	–	–	COc1cc(F)cnc1-c1cc(C(=O)Nc2cc(Cl)cc(NS(C)(=O)=O)c2)cn1C [Example 568, N-(3-chloro-5-methanesulfonamidophenyl)-5-(5-fluoro-3-methoxypyridin-2-yl)-1-methylpyrrole-3-carboxamide]	349	–	–	–
–	–	> 10000	104	Cc1cc(C(=O)Nc2cc(Cl)cc(NS(C)(=O)=O)c2)cn1-c1ncccn1 [Example 59]	–	357	–	–
–	–	> 10000	34.6	COc1cnc(-c2cc(C(=O)Nc3cc(Cl)cc(NS(C)(=O)=O)c3)sc2C)nc1 [Example 341]	–	122	–	–
–	–	> 10000	106	COc1cnc(-c2csc(C(=O)Nc3cc(Cl)cc(NS(C)(=O)=O)c3)c2)nc1 [Example 340]	–	118	–	–
> 10000	55.7	–	–	COCc1cnc(-c2cc(C(=O)Nc3cc(Cl)cc(NS(C)(=O)=O)c3)cn2C)nc1 [Example 690]	183	–	–	–
–	–	> 10000	32.6	CNC(=O)c1sc(C(=O)Nc2cc(Cl)cc(NS(C)(=O)=O)c2)cc1-c1ncccc1OCc1ccccc1 [Example 212]	–	202	–	–
–	–	> 10000	73.2	Cn1cc(C(=O)Nc2cc(Cl)cc(NS(C)(=O)=O)c2)cc1-c1ncccn1 [Example 82]	–	134	–	–
> 10000	89.5	–	–	COc1cnn(-c2cc(C(=O)Nc3cc(Cl)cc(NS(C)(=O)=O)c3)sc2C)c1 [Example 436]	272	–	–	–
> 10000	106	–	–	COc1ccc(-c2cc(C(=O)Nc3cc(Cl)cc(NS(C)(=O)=O)c3)cn2C)nc1 [Example 573]	103	–	–	–
> 10000	6.2	–	–	CS(=O)(=O)Nc1cc(Cl)cc(NC(=O)c2cc(-c3ncccc3OCc3cncc(F)c3)cs2)c1 [Example 620, N-(3-chloro-5-methanesulfonamidophenyl)-4-{3-[(5-fluoropyridin-3-yl)methoxy]pyridin-2-yl}thiophene-2-carboxamide]	26.4	–	–	–
–	–	> 10000	74.2	Cc1cc(C(=O)Nc2cc(Cl)cc(NS(C)(=O)=O)c2)cn1-c1ncccc1OCc1nccs1 [Example 280]	–	116	–	–
